Data published in article PMC11013662, “New Thiosemicarbazide Derivatives with Multidirectional Biological Action” (Molecules, 2024).
Values after ≈ are worked out from the molar mass of the structure shown.

Key:
Type in all cases: cell-based
[1] = test system: Staphylococcus aureus ATCC 25923; experiment: Broth microdilution MIC / MBC; settings: for MIC: ATCC25923, S. aureus ATCC 25923, read-out: MIC; for MBC: ATCC25923, S. aureus ATCC 25923, read-out: MBC
Procedure: The microdilution method was used to determine the MIC values of newly synthesized compounds. The antimicrobial activity of the thiosemicarbazides series was tested on ten reference bacterial strains purchased from the American Type Culture Collection (ATCC). Seven Gram-positive reference strains (S. aureus ATCC 29213, S. aureus ATCC 43300, S. aureus ATCC 6538, S. aureus ATCC 25923, S. epidermidis ATCC 12228, M. luteus ATCC 10240, and B. cereus ATCC 10876) and three Gram-negative reference bacteria (K. pneumoniae ATCC 13883, E. coli ATCC 25922, S. typhimurium ATCC 14028) were used. These bacterial strains are representatives of microorganisms that can cause the most common opportunistic infections among humans. The bacteria were grown on Mueller–Hinton agar (MHA) plates before examination. To perform the assay, all bacteria were placed in sterile saline (0.85% NaCl) to obtain a suspension of the optical density of the 0.5 McFarland standard (1.50 × 10^8 colony-forming units (CFUs)/mL). A solution of the tested compounds was prepared in dimethyl sulfoxide (DMSO) at a concentration of 50 mg/mL as a stock solution.
A 96-well microtiter plate and microbroth two-fold dilution method was used to determine the minimum inhibitory concentration (MIC) according to the EUCAST (European Committee on Antimicrobial Susceptibility Testing) reference recommendation. The solutions were then diluted with Mueller–Hinton broth (MHB, Biomaxima, Lublin, Poland) medium to obtain a solution with a basic concentration of 1000 µg/mL. Then, using the two-fold dilution method with MHB, the tested compounds were introduced into the wells of the microplate to provide a final concentration in the range of 0.49 to 1000 µg/mL. Then, 2 μL of bacterial inoculum with a density of 0.5 McFarland standard was added into each well. Each well was filled with a total volume of 100 μL. Then, microtiter plates were incubated for 18 ± 2 h at 35 °C. After incubation, the growth of bacteria was monitored by a Biotek ELx800 (Biokom, Janki, Poland) spectrophotometer at 600 nm (OD600). The MIC assays were performed in triplicate.
A negative control with MHB and without tested compounds was used. Clinically used anti-bacterial agents, cefuroxime and vancomycin, were included as positive controls for the purpose of comparison in a concentration range from 0.007 to 15.625 µg/mL.
The in vitro antimicrobial activity of the tested compounds was determined by the MIC, which was defined as the lowest concentration of the compound tested at which no visible growth of the test bacteria was observed. The MBC (the minimum bactericidal concentration) is defined as the lowest concentration of antimicrobial agent resulting in reduction in the viability of the initial bacterial inoculum by ≥99.9% on the plate. Generally, an MBC/MIC ratio less than 4 is considered bactericidal for an antimicrobial, and an MBC/MIC > 8 is indicative of bacteriostatic activity. For the MBC test, the Mueller–Hinton agar (MHA, Biomaxima, Poland) plate assay was used. MBC was determined after the broth dilution period of an MIC test has been completed. After the MIC detection, 5 µL aliquots from each well were plated on an MHA plate and grown at 35 °C overnight. The MBC values were determined by observing the first clear area on the agar plate that has no observable bacterial growth.

[2] = test system: SW 620 human metastatic colon cancer cells; experiment: MTT cytotoxicity assay; settings: for IC50: Homo sapiens, SW 620, MTT, 72 h; for SI (Selectivity Index): IC50 for normal cell line (V79)/IC50 cancer cell line (SW 620)
Procedure: Both lines were obtained from American Type Culture Collection (ATCC, Rockville, MD, USA). The culture used to grow the SW 620 cells was prepared in MEM (ThermoSci, Waltham, MA, USA). The V79 cells were cultured in RPMI (Biowest SAS, Nuaillé, France) with the addition of 20 mM HEPES (Biowest, Nuaillé, France), 10% fetal bovine serum (FBS, Sigma-Aldrich, St. Louis, MO, USA), 100 µg/mL of streptomycin, and 100 U/mL of penicillin (Gibco, Grand Island, NY, USA). […] The MTT assay was used to establish the cytotoxic activity of the studied compounds. […] The process starts with the preparation of 96-well plates by placing cells at a density of 1 × 10^4 per well and incubating them for 24 h to adhere. […] Next, cells were incubated for 72 h at 37 °C with a 5% CO2. Then, a solution of MTT (0.5 mg/mL) was added to each well and plates were incubated for 4 h more in the same conditions. To dissolve precipitated formazan crystals, a mixture of DMSO and isopropanol (in a 1:1 ratio, v/v) was used. […] Cell viability was determined as the percentage of MTT reduction in the treated cells compared to the control group (unexposed cells). The relative MTT level, represented as a percentage, was calculated using the formula [A]/[B] × 100, where [A] stands for the absorbance of the treated cell sample and [B] for the absorbance of unexposed to studied compounds sample (control group).

[3] = test system: V79 Chinese hamster lung cells; experiment: MTT cytotoxicity assay; settings: Cricetulus griseus, V 79 normal cells, 72 h
Procedure: Both lines were obtained from American Type Culture Collection (ATCC, Rockville, MD, USA). The culture used to grow the SW 620 cells was prepared in MEM (ThermoSci, Waltham, MA, USA). The V79 cells were cultured in RPMI (Biowest SAS, Nuaillé, France) with the addition of 20 mM HEPES (Biowest, Nuaillé, France), 10% fetal bovine serum (FBS, Sigma-Aldrich, St. Louis, MO, USA), 100 µg/mL of streptomycin, and 100 U/mL of penicillin (Gibco, Grand Island, NY, USA). The eligible level of cells confluence was 80–90%, and both cell cultures were maintained in a humidified incubator set at 37 °C with 5% CO2 until they reached it.
The MTT assay was used to establish the cytotoxic activity of the studied compounds. The mechanism of this method relies on enzymatic conversion of 3-(4,5-dimethylthiazol-2-yl)-2,5-diphentyltetrazolium bromide salt (MTT) into insoluble formazan crystals by mitochondrial dehydrogenases within viable cells.
The process starts with the preparation of 96-well plates by placing cells at a density of 1 × 10^4 per well and incubating them for 24 h to adhere. Afterwards, the cells were treated with different concentrations of thiosemicarbazide derivatives, from 20 to 100 µM, except the control group which remained not exposed. Next, cells were incubated for 72 h at 37 °C with a 5% CO2. Then, a solution of MTT (0.5 mg/mL) was added to each well and plates were incubated for 4 h more in the same conditions.
To dissolve precipitated formazan crystals, a mixture of DMSO and isopropanol (in a 1:1 ratio, v/v) was used. For the spectrophotometric survey, we used MultiscanGo from Thermo Scientific with the wavelength value set at 570 nm to measure absorbance.
Cell viability was determined as the percentage of MTT reduction in the treated cells compared to the control group (unexposed cells). The relative MTT level, represented as a percentage, was calculated using the formula [A]/[B] × 100, where [A] stands for the absorbance of the treated cell sample and [B] for the absorbance of unexposed to studied compounds sample (control group). […] To calculate IC50 values (concentration at which 50% of cell viability is inhibited), we used GraphPad Prism 8.0.1 software.

Compound | MIC [1] [µg/mL] | IC50 [2] [µM] | SI (Selectivity Index) [2] | IC50 [3] [µM] | MBC [1] [µg/mL]
O=C(NNC(=S)Nc1cccc(Cl)c1)c1cccc(C(F)(F)F)c1 [Compound 3a, 4-(3-Chlorophenyl)-1-(3-trifluoromethylbenzoyl)thiosemicarbazide] | 1.95 (≈ 5.22 µM) | 69 ± 12.6 | 0.59 | 40.5 ± 3.83 | 1000 (≈ 2680 µM)
CCCCNC(=S)NNC(=O)c1cccc(C(F)(F)F)c1 [Compound 3c, 4-Butyl-1-(3-trifluoromethylbenzoyl)thiosemicarbazide] | 250 (≈ 783 µM) | > 100 | 1 | > 100 | 
COc1cccc(NC(=S)NNC(=O)c2cccc(C(F)(F)F)c2)c1 [Compound 3b, 1-(3-Trifluoromethylbenzoyl)-4-(3-methoxyphenyl)thiosemicarbazide] | 62.5 (≈ 169 µM) | > 100 | 1 | > 100 | 

The next lines start with results.

MIC [1] [µg/mL] | Compound | IC50 [2] [µM] | SI (Selectivity Index) [2] | IC50 [3] [µM] | MBC [1] [µg/mL]
1000 (≈ 2810 µM) | FC(F)(F)c1cccc(-c2n[nH]c(=S)n2-c2cccc(Cl)c2)c1 [Compound 4, 4-(3-Chlorophenyl)-5-(3-trifluoromethylphenyl)-2,4-dihydro-3H-1,2,4-triazole-3-thione] | > 100 | 1 | > 100 | 
62.5 (≈ 184 µM) | O=C(NNC(=S)Nc1ccccc1)c1cccc(C(F)(F)F)c1 [Compound 3f, 1-(3-Trifluoromethylbenzoyl)-4-(phenyl)thiosemicarbazide] | > 100 | 1 | > 100 | 
1000 (≈ 2830 µM) | Cc1cccc(NC(=S)NNC(=O)c2cccc(C(F)(F)F)c2)c1 [Compound 3d, 1-(3-Trifluoromethylbenzoyl)-4-(3-methylphenyl)thiosemicarbazide] | > 100 | 0.69 | 69.1 ± 5.45 | 
31.2 (≈ 87.5 µM) | O=C(NNC(=S)Nc1cccc(F)c1)c1cccc(C(F)(F)F)c1 [Compound 3e, 1-(3-Trifluoromethylbenzoyl)-4-(3-fluorophenyl)thiosemicarbazide] | 89.9 ± 14.6 |  | > 100 | > 1000
